Measurements from PMC7854383, “Cellular Uptake of Psychostimulants – Are High- and Low-Affinity Organic Cation Transporters Drug Traffickers?” (Frontiers in Pharmacology, 2021).
Residue numbers refer to the chain shown, from its start. Numbers in names are those of the source.

Tests used:
[1] = cited from earlier work
[2] = biological target: T1, OCT2 (Homo sapiens, UniProt O15244); experiment: Screening of cellular uptake at 1 µM, OCT2-overexpressing HEK293 cells over empty vector control cells; conditions: 2 min
T1 sequence (O15244 1-555 S270A): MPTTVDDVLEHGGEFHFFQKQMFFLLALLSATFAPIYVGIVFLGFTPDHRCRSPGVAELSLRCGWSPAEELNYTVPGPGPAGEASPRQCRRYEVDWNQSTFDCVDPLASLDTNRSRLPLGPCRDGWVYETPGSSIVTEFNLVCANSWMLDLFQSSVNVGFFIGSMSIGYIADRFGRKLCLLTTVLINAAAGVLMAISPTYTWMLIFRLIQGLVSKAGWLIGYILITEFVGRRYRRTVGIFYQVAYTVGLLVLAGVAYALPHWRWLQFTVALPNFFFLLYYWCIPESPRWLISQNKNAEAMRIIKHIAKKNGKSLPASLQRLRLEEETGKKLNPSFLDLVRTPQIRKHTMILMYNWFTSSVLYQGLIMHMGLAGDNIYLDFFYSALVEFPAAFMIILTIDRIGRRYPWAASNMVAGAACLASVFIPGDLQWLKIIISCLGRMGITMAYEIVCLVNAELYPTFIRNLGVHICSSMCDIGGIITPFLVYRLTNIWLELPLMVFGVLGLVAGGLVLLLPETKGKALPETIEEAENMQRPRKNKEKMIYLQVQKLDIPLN
From the text: Koepsell and Gorbulev (University of Würzburg, Germany).
Eighteen psychostimulants and hallucinogens were initially screened for their potential to be substrates for different polyspecific OCTs and high-affinity monoamine neurotransmitter transporters (Figure 3), as well as for the efflux transporter MATE2-K (Supplementary Figure S1).

[3] = biological target: T2, OCT2 variant A270S (Homo sapiens, UniProt O15244); experiment: Concentration-dependent transport by OCT2 variant A270S in HEK293 cells; conditions: OCT2 A270S
T2 sequence (O15244 1-555): T1 sequence (O15244 1-555 S270A) with A270S

[4] = biological target: T3, wild-type OCT2 (Homo sapiens, UniProt O15244); experiment: Concentration-dependent transport by wild-type OCT2 in HEK293 cells; conditions: for vmax: OCT2 WT
T3 sequence (O15244 1-555 S270A): T1 sequence (O15244 1-555 S270A)

[5] = biological target: SERT (Homo sapiens, UniProt P31645); experiment: Screening of cellular uptake at 1 µM, SERT-overexpressing HEK293 cells over empty vector control cells; format: in vitro ADME; conditions: 2 min
[6] = substrate: CN(C)CCc1c[nH]c2ccccc12; experiment: not read; conditions: other: OCT2 WT, pH 7.4
[7] = substrate: CNC(C)Cc1ccc(OC)cc1; experiment: not read; conditions: other: OCT2 WT, pH 7.4
[8] = substrate: CN[C@@H](C)[C@H](O)c1ccccc1; experiment: not read; conditions: other: OCT2 WT; pH 7.4; 37.0 °C
[9] = substrate: COc1cc(CCN)cc(OC)c1OC; experiment: not read; conditions: other: OCT1*1 (WT); net transport, 2 min; pH 7.4; 37.0 °C

Sequence of SERT (P31645 whole entry): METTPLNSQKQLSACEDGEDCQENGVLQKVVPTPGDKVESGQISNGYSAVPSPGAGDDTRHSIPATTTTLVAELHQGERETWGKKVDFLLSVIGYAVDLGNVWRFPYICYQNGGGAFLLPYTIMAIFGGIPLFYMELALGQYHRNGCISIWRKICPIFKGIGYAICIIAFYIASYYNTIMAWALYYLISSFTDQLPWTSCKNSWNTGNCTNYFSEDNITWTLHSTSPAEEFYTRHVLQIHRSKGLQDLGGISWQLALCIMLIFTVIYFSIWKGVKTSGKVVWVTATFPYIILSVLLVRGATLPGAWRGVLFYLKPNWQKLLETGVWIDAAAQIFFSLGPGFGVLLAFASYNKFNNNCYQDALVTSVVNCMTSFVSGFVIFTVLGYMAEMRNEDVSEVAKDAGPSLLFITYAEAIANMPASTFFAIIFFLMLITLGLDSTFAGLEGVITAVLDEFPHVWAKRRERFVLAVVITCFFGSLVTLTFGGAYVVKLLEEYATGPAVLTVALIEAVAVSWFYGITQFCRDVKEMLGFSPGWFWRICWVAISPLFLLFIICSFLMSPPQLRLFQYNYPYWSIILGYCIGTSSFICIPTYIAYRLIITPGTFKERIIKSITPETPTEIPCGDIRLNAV

Molecule: C[C@H](N)C(=O)c1ccccc1 [Cathinone]
- renal elimination (unchanged in urine) ([1]; ref Kalix and Braenden, 1985, Toennes and Kauert, 2002): 2–7%

Molecule: CN(C)CCc1c[nH]c2ccccc12 [DMT, dimethyltryptamine]
- excreted unchanged in urine ([1]; following intramuscular administration, ref Sitaram et al., 1987, Barker, 2018): 0.16%
- ratio of uptake in transporter-transfected cells over empty vector control cells [2]: approximately 3 fold

Molecule: CN[C@@H](C)Cc1ccccc1 [Methylamphetamine]
- renal elimination ([1]; ref Toennes and Kauert, 2002, www.dosing.de and www.drugbank.ca): 30–54%
- ratio of uptake in transporter-transfected cells over empty vector control cells [2]: 4- to 6 fold
- vmax [3]: 34.5 (± 8.5) pmol × mg protein^-1 × min^-1
- vmax ([4]; listed as Methamphetamine): 70.7 (± 8.3) pmol × mg protein^-1 × min^-1
- vmax ([4]; listed as methamphetamine): 70.7 ± 8.3 pmol × mg protein^-1 × min^-1
- Km at 2 min ([4]; human, pH 7.4): 11.9 µM

Molecule: COc1ccc(CC(C)N)cc1 (centres unmarked) [PMA, para-methoxyamphetamine]
- ratio of uptake in transporter-transfected cells over empty vector control cells [5]: slightly higher (albeit still low) uptake

Molecule: CNC(C)Cc1ccc(OC)cc1 (centres unmarked) [PMMA, para-methoxymethamphetamine]
- ratio of uptake in transporter-transfected cells over empty vector control cells [5]: slightly higher (albeit still low) uptake
- ratio of uptake in transporter-transfected cells over empty vector control cells [2]: approximately 3 fold

B1: wild-type OCT2 (Homo sapiens; S270A) (protein)
chain: T1 sequence (O15244 1-555 S270A)
- Km [6]: 13.0 (± 3.7) μM
- Vmax [6]: 296.7 (± 23.3) pmol × mg protein^-1 × min^-1
- Km [7]: 7.9 (± 2.6) μM
- Vmax [7]: 225.1 (± 19.3) pmol × mg protein^-1 × min^-1
- Km [8]: 15.7 (± 4.6) μM
- Vmax [8]: 417.8 (± 35.6) pmol × mg protein^-1 × min^-1

B2: OCT1*1 (WT) (Homo sapiens) (protein)
chain: MPTVDDILEQVGESGWFQKQAFLILCLLSAAFAPICVGIVFLGFTPDHHCQSPGVAELSQRCGWSPAEELNYTVPGLGPAGEAFLGQCRRYEVDWNQSALSCVDPLASLATNRSHLPLGPCQDGWVYDTPGSSIVTEFNLVCADSWKLDLFQSCLNAGFLFGSLGVGYFADRFGRKLCLLGTVLVNAVSGVLMAFSPNYMSMLLFRLLQGLVSKGNWMAGYTLITEFVGSGSRRTVAIMYQMAFTVGLVALTGLAYALPHWRWLQLAVSLPTFLFLLYYWCVPESPRWLLSQKRNTEAIKIMDHIAQKNGKLPPADLKMLSLEEDVTEKLSPSFADLFRTPRLRKRTFILMYLWFTDSVLYQGLILHMGATSGNLYLDFLYSALVEIPGAFIALITIDRVGRIYPMAMSNLLAGAACLVMIFISPDLHWLNIIIMCVGRMGITIAIQMICLVNAELYPTFVRNLGVMVCSSLCDIGGIITPFIVFRLREVWQALPLILFAVLGLLAAGVTLLLPETKGVALPETMKDAENLGRKAKPKENTIYLKVQTSEPSGT
- Km [9]: 24.3 (±6.3) µM
- Vmax [9]: 0.000642 µmol/min/mg
